In PubChem BioAssay (NCI):
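Briefly, cells in 96-well plates were exposed to five compound concentrations for 48 h, and endpoints were estimated by linear interpolation. TGI marks complete inhibition of growth.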

Tests used:
Assay in all cases: growth of human tumour cells (NCI), 48 h
786-0 renal = system: 786-0 renal
ACHN renal = system: ACHN renal
BT-549 breast = system: BT-549 breast
CAKI-1 renal = system: CAKI-1 renal
CCRF-CEM leukemia = system: CCRF-CEM leukemia
COLO 205 colon = system: COLO 205 colon
DLD-1 colon = system: DLD-1 colon
DMS 114 small cell lung = system: DMS 114 small cell lung
DMS 273 small cell lung = system: DMS 273 small cell lung
DU-145 prostate = system: DU-145 prostate
EKVX NSCLC = system: EKVX NSCLC
HCC-2998 colon = system: HCC-2998 colon
HCT-116 colon = system: HCT-116 colon
HCT-15 colon = system: HCT-15 colon
HL-60(TB) leukemia = system: HL-60(TB) leukemia
HOP-18 NSCLC = system: HOP-18 NSCLC
HOP-62 NSCLC = system: HOP-62 NSCLC
HOP-92 NSCLC = system: HOP-92 NSCLC
HS 578T breast = system: HS 578T breast
HT29 colon = system: HT29 colon
IGROV1 ovarian = system: IGROV1 ovarian
K-562 leukemia = system: K-562 leukemia
KM12 colon = system: KM12 colon
KM20L2 colon = system: KM20L2 colon
LOX IMVI melanoma = system: LOX IMVI melanoma
M14 melanoma = system: M14 melanoma
M19-MEL melanoma = system: M19-MEL melanoma
MALME-3M melanoma = system: MALME-3M melanoma
MCF7 breast = system: MCF7 breast
MDA-MB-231 breast = system: MDA-MB-231 breast
MDA-MB-435 = system: MDA-MB-435
MDA-N = system: MDA-N
MOLT-4 leukemia = system: MOLT-4 leukemia
NCI-H226 lung = system: NCI-H226 lung
NCI-H23 lung = system: NCI-H23 lung
NCI-H460 lung = system: NCI-H460 lung
NCI-H522 lung = system: NCI-H522 lung
NCI/ADR-RES ovarian = system: NCI/ADR-RES ovarian
OVCAR-3 ovarian = system: OVCAR-3 ovarian
OVCAR-4 ovarian = system: OVCAR-4 ovarian
OVCAR-5 ovarian = system: OVCAR-5 ovarian
OVCAR-8 ovarian = system: OVCAR-8 ovarian
PC-3 prostate = system: PC-3 prostate
RPMI-8226 leukemia = system: RPMI-8226 leukemia
RXF 393 renal = system: RXF 393 renal
SF-268 CNS = system: SF-268 CNS
SF-295 CNS = system: SF-295 CNS
SF-539 CNS = system: SF-539 CNS
SK-MEL-2 melanoma = system: SK-MEL-2 melanoma
SK-MEL-28 melanoma = system: SK-MEL-28 melanoma
SK-MEL-5 melanoma = system: SK-MEL-5 melanoma
SK-OV-3 ovarian = system: SK-OV-3 ovarian
SN12C renal = system: SN12C renal
SN12K1 renal = system: SN12K1 renal
SNB-19 CNS = system: SNB-19 CNS
SNB-75 CNS = system: SNB-75 CNS
SNB-78 CNS = system: SNB-78 CNS
SR leukemia = system: SR leukemia
SW-620 colon = system: SW-620 colon
T-47D breast = system: T-47D breast
TK-10 renal = system: TK-10 renal
UACC-257 melanoma = system: UACC-257 melanoma
UACC-62 melanoma = system: UACC-62 melanoma
UO-31 renal = system: UO-31 renal
A498 renal = system: A498 renal
A549 NSCLC = system: A549 NSCLC
LXFL 529 NSCLC = system: LXFL 529 NSCLC
RXF-631 renal = system: RXF-631 renal
U251 CNS = system: U251 CNS
XF 498 CNS = system: XF 498 CNS

**Q.** What does the source list for `COC1=C(C)C(=O)C2=C(C1=O)C1C3CC4=C(C(=O)C(OC)=C(C)C4=O)C(CNC(=O)C(C)O)N3C(C#N)C(C2)N1C` (stereo not given)?
**A.** TGI (786-0 renal): 1.24 µM; TGI (ACHN renal): 0.359 µM; TGI (BT-549 breast): < 0.01 µM; TGI (CAKI-1 renal): 2 µM; TGI (CCRF-CEM leukemia): 1.38 µM; TGI (COLO 205 colon): < 0.01 µM; TGI (DLD-1 colon): 0.372 µM; TGI (DMS 114 small cell lung): < 0.01 µM; TGI (DMS 273 small cell lung): < 0.0111 µM; TGI (DU-145 prostate): 0.0566 µM; TGI (EKVX NSCLC): 0.108 µM; TGI (HCC-2998 colon): < 0.0272 µM; TGI (HCT-116 colon): 2.18 µM; TGI (HCT-15 colon): 10.5 µM; TGI (HL-60(TB) leukemia): < 0.01 µM; TGI (HOP-18 NSCLC): < 0.01 µM; TGI (HOP-62 NSCLC): < 0.0282 µM; TGI (HOP-92 NSCLC): < 0.01 µM; TGI (HS 578T breast): < 0.01 µM; TGI (HT29 colon): < 0.01 µM; TGI (IGROV1 ovarian): 1.07 µM; TGI (K-562 leukemia): 1.48 µM; TGI (KM12 colon): 0.827 µM; TGI (KM20L2 colon): 3.1 µM; TGI (LOX IMVI melanoma): 0.0263 µM; TGI (M14 melanoma): 0.0173 µM; TGI (M19-MEL melanoma): < 0.01 µM; TGI (MALME-3M melanoma): < 0.0139 µM; TGI (MCF7 breast): 2.25 µM; TGI (MDA-MB-231 breast): 0.0178 µM; TGI (MDA-MB-435): < 0.01 µM; TGI (MDA-N): < 0.0107 µM; TGI (MOLT-4 leukemia): < 0.215 µM; TGI (NCI-H226 lung): 0.109 µM; TGI (NCI-H23 lung): 0.0183 µM; TGI (NCI-H460 lung): 0.179 µM; TGI (NCI-H522 lung): < 0.01 µM; TGI (NCI/ADR-RES ovarian): 8.72 µM; TGI (OVCAR-3 ovarian): < 0.01 µM; TGI (OVCAR-4 ovarian): 0.334 µM; TGI (OVCAR-5 ovarian): 0.0888 µM; TGI (OVCAR-8 ovarian): 1.32 µM; TGI (PC-3 prostate): 1.74 µM; TGI (RPMI-8226 leukemia): < 0.215 µM; TGI (RXF 393 renal): 0.022 µM; TGI (SF-268 CNS): 0.146 µM; TGI (SF-295 CNS): 0.753 µM; TGI (SF-539 CNS): < 0.0117 µM; TGI (SK-MEL-2 melanoma): < 0.01 µM; TGI (SK-MEL-28 melanoma): < 0.0217 µM; TGI (SK-MEL-5 melanoma): < 0.01 µM; TGI (SK-OV-3 ovarian): 1.2 µM; TGI (SN12C renal): 1.72 µM; TGI (SN12K1 renal): < 0.01 µM; TGI (SNB-19 CNS): 1.92 µM; TGI (SNB-75 CNS): 0.0171 µM; TGI (SNB-78 CNS): 0.0863 µM; TGI (SR leukemia): > 100 µM; TGI (SW-620 colon): 0.235 µM; TGI (T-47D breast): < 0.01 µM; TGI (TK-10 renal): 0.579 µM; TGI (UACC-257 melanoma): 0.0102 µM; TGI (UACC-62 melanoma): < 0.01 µM; TGI (UO-31 renal): 0.731 µM

**Q.** Which results are given for `COc1ccc(C(=O)CC2=Nc3nnc(CCCCCCCc4nnc5n4C(=O)C(CC(=O)c4ccc(OC)cc4)=N5)n3C2=O)cc1`?
**A.** TGI (786-0 renal): > 100 µM; TGI (A498 renal): > 100 µM; TGI (A549 NSCLC): > 100 µM; TGI (ACHN renal): > 100 µM; TGI (CAKI-1 renal): > 100 µM; TGI (CCRF-CEM leukemia): > 100 µM; TGI (COLO 205 colon): > 100 µM; TGI (DLD-1 colon): > 100 µM; TGI (DMS 114 small cell lung): > 100 µM; TGI (EKVX NSCLC): > 100 µM; TGI (HCC-2998 colon): > 100 µM; TGI (HCT-116 colon): > 100 µM; TGI (HCT-15 colon): > 100 µM; TGI (HL-60(TB) leukemia): > 100 µM; TGI (HOP-18 NSCLC): > 100 µM; TGI (HOP-62 NSCLC): > 100 µM; TGI (HOP-92 NSCLC): > 100 µM; TGI (HT29 colon): > 100 µM; TGI (IGROV1 ovarian): > 100 µM; TGI (K-562 leukemia): > 100 µM; TGI (KM12 colon): > 100 µM; TGI (KM20L2 colon): > 100 µM; TGI (LOX IMVI melanoma): > 100 µM; TGI (LXFL 529 NSCLC): > 100 µM; TGI (M14 melanoma): > 100 µM; TGI (M19-MEL melanoma): > 100 µM; TGI (MALME-3M melanoma): > 100 µM; TGI (MOLT-4 leukemia): > 100 µM; TGI (NCI-H226 lung): > 100 µM; TGI (NCI-H23 lung): > 100 µM; TGI (NCI-H460 lung): > 100 µM; TGI (NCI-H522 lung): > 100 µM; TGI (OVCAR-3 ovarian): > 100 µM; TGI (OVCAR-5 ovarian): > 100 µM; TGI (OVCAR-8 ovarian): > 100 µM; TGI (RPMI-8226 leukemia): > 100 µM; TGI (RXF 393 renal): > 100 µM; TGI (RXF-631 renal): > 100 µM; TGI (SF-268 CNS): > 100 µM; TGI (SF-295 CNS): > 100 µM; TGI (SF-539 CNS): > 100 µM; TGI (SK-MEL-28 melanoma): > 100 µM; TGI (SK-MEL-5 melanoma): > 100 µM; TGI (SK-OV-3 ovarian): > 100 µM; TGI (SN12C renal): > 100 µM; TGI (SNB-19 CNS): > 100 µM; TGI (SNB-75 CNS): > 100 µM; TGI (SR leukemia): > 100 µM; TGI (SW-620 colon): > 100 µM; TGI (TK-10 renal): > 100 µM; TGI (U251 CNS): > 100 µM; TGI (UACC-257 melanoma): > 100 µM; TGI (UACC-62 melanoma): > 100 µM; TGI (UO-31 renal): > 100 µM; TGI (XF 498 CNS): > 100 µM

**Q.** What does the source list for `COC(=O)/C(C#N)=C(\N)C(Cl)(Cl)Cl`?
**A.** TGI (786-0 renal): 14.4 µM; TGI (A498 renal): 8.22 µM; TGI (A549 NSCLC): 12.7 µM; TGI (ACHN renal): 6.6 µM; TGI (CAKI-1 renal): 17.5 µM; TGI (CCRF-CEM leukemia): 2.67 µM; TGI (COLO 205 colon): 4.72 µM; TGI (DLD-1 colon): 3.52 µM; TGI (DMS 114 small cell lung): 11.1 µM; TGI (DMS 273 small cell lung): 12.4 µM; TGI (EKVX NSCLC): 17.8 µM; TGI (HCC-2998 colon): 9.41 µM; TGI (HCT-116 colon): 2.25 µM; TGI (HCT-15 colon): 8.43 µM; TGI (HL-60(TB) leukemia): 1.32 µM; TGI (HOP-62 NSCLC): 39 µM; TGI (HOP-92 NSCLC): 9.85 µM; TGI (K-562 leukemia): 4.51 µM; TGI (KM12 colon): 15.8 µM; TGI (KM20L2 colon): > 100 µM; TGI (LOX IMVI melanoma): 10.8 µM; TGI (LXFL 529 NSCLC): 9.73 µM; TGI (M14 melanoma): 3.31 µM; TGI (M19-MEL melanoma): 6.35 µM; TGI (MOLT-4 leukemia): 3.2 µM; TGI (NCI-H460 lung): 16.1 µM; TGI (NCI-H522 lung): 4.14 µM; TGI (OVCAR-3 ovarian): 12.9 µM; TGI (OVCAR-4 ovarian): 8.56 µM; TGI (OVCAR-8 ovarian): 4.68 µM; TGI (RPMI-8226 leukemia): 6.75 µM; TGI (RXF 393 renal): 3.77 µM; TGI (RXF-631 renal): 6.02 µM; TGI (SF-268 CNS): 14.7 µM; TGI (SF-295 CNS): 19.4 µM; TGI (SK-MEL-2 melanoma): 87.2 µM; TGI (SK-MEL-28 melanoma): 4.66 µM; TGI (SK-MEL-5 melanoma): 3.82 µM; TGI (SK-OV-3 ovarian): 5.3 µM; TGI (SN12C renal): 12.7 µM; TGI (SNB-19 CNS): > 100 µM; TGI (SNB-75 CNS): 16 µM; TGI (SNB-78 CNS): 31.3 µM; TGI (SR leukemia): 5.37 µM; TGI (SW-620 colon): 1.84 µM; TGI (TK-10 renal): 7.55 µM; TGI (U251 CNS): 31.7 µM; TGI (UACC-257 melanoma): 12.6 µM; TGI (UACC-62 melanoma): 2.86 µM; TGI (UO-31 renal): 86.6 µM; TGI (XF 498 CNS): 4.36 µM
